Results taken from PMC8510344, “Bile-Acid-Appended Triazolyl Aryl Ketones: Design, Synthesis, In Vitro Anticancer Activity and Pharmacokinetics in Rats” (Molecules, 2021).

Tests used:
[1] = tested on: MCF-7 (human breast adenocarcinoma) cells; experiment: MTT cytotoxicity assay, MCF-7; type: cell-based; details: Homo sapiens, MCF7, 10 µM, 48 h exposure, read-out: % Cell Viability at 10 µM MCF-7
Description: (§1) The cytotoxicity activity of all the conjugates (6aa–6df) was evaluated in vitro by MTT assay against two different breast cancer cell lines 4T1 (murine) and MCF-7 (human) and HEK 293 (human) as normal cell line. DTX was used as positive control. Cells were grown in DMEM supplemented with 10% FBS and 1% antibiotic solution and incubated at 5% CO2 and 37 °C for 24 h. The stock solutions of all the conjugates were prepared in DMSO and diluted for further use. Briefly, 5 × 10^3 cells/well were seeded in 96-well cell culture plates and allowed to adhere for 24 h. Cell inhibition (%) was determined after 48 h exposure to the compounds at 1–25 μM concentration. After 48 h, MTT assay was performed and the yellow tetrazolium salt (MTT) was reduced in metabolically active cells to form insoluble purple formazan crystals, which were solubilized by the addition of DMSO. The optical density (OD) was recorded at 560 nm and 630 nm as reference wavelength. Percentage cell inhibition was determined by comparison with untreated cells.

[2] = tested on: 4T1 (mouse mammary carcinoma) cells; experiment: MTT cytotoxicity assay, 4T1; type: cell-based; details: for IC50: 48 h; for viability at 10 µM: 48 h exposure, read-out: % Cell Viability at 10 µM 4T1
Description: as §1

[3] = MTT cytotoxicity assay, normal cell line HEK 293; type: cell-based; details: human, HEK 293 cells, HEK 293 normal cells, 48 h exposure
Description: as §1

MCF-7 cells = experiment: Annexin V/PI apoptosis assay by flow cytometry, MCF-7; type: cell-based, human; details: 6af at 2.61 µM, 6cf at 5.71 µM (respective IC50), 48 h
Description: (§2) The extent of apoptosis induced by compounds 6af and 6cf in MCF-7 and 4T1 cells was quantified by flow cytometry according to the manufacturer’s protocol. Briefly, cells were seeded in a 6-well plate at a cell density of 1 × 10^6 cells/well. After 24 h, the media was discarded and cells were treated with fresh media containing compounds 6af and 6cf at their respective IC50 concentrations for 48 h. After treatment, cells were trypsinized, harvested in PBS and collected by centrifugation for 5 min at 2000 rpm. Cells were then resuspended in 1X binding buffer and stained with FITC-labeled Annexin V Alexa Fluor 488 (5 μL) and propidium iodide (10 μL). Cells were analyzed using flow cytometer (Beckman Coulter), and data were analyzed with CytExpert software.

4T1 cells = experiment: Annexin V/PI apoptosis assay by flow cytometry, 4T1; type: cell-based, mouse; details: 6af at 12.84 µM, 6cf at 8.76 µM (respective IC50), 48 h
Description: as §2

[4] = tested on: Human cervix cancer cell line (HeLa); set-up: method as in PMID 23884119, PMID 25476168, PMID 30220830, PMID 23584541, PMID 28158265; details: literature example of Figure 1, cited from earlier work

SMILES | viability at 10 µM [1] [%] | IC50 [2] [µM] | viability at 10 µM ([2]; Mus musculus) [%] | IC50 ([2]; Mus musculus) [µM] | viability at 48 h, 10 µM [3] [%] | apoptosis (total) in MCF-7 cells (MCF-7 cells) [%] | total apoptosis in 4T1 cells (4T1 cells) [%] | melting point [°C] | % Growth Inhibition at 30 μM HeLa [4] [%] | IC50 [4] [µM]
C[C@H](CCC(=O)OCc1cn(CC(=O)c2ccc(Br)cc2)nn1)C1CCC2C3C(C[C@H](O)[C@@]21C)[C@@]1(C)CC[C@@H](O)CC1C[C@H]3O (stereo partly drawn) [6af, (1-(2-(4-Bromophenyl)-2-oxoethyl)-1H-1,2,3-triazol-4-yl)methyl (4R)-4-((3R,7R,10S,12S,13R)-3,7,12-trihydroxy-10,13-dimethylhexadecahydro-1H-cyclopenta[a]phenanthren-17-yl)pentanoate] | 26.5 | 12.8 ± 1.8 | 55.9 | < 19 | > 86 | 33.89 | 19.02 | 159 to 160 | – | –
C[C@H](CCC(=O)OCc1cn(CC(=O)c2ccc(F)cc2)nn1)C1CCC2C3CCC4C[C@H](O)CC[C@]4(C)C3C[C@H](O)[C@@]21C (stereo partly drawn) [6bd, (1-(2-(4-Fluorophenyl)-2-oxoethyl)-1H-1,2,3-triazol-4-yl)methyl (4R)-4-((3R,10S,12S,13R)-3,12-dihydroxy-10,13-dimethylhexadecahydro-1H-cyclopenta[a]phenanthren-17-yl)pentanoate] | 79.6 | – | 52.4 | – | 89.4 | – | – | 127 to 128 | – | –
Cc1ccc(C(=O)Cn2cc(COC(=O)CC[C@@H](C)C3CCC4C5CCC6C[C@H](O)CC[C@]6(C)C5C[C@H](O)[C@@]43C)nn2)cc1 (stereo partly drawn) [6bb, (1-(2-Oxo-2-(p-tolyl)ethyl)-1H-1,2,3-triazol-4-yl)methyl (4R)-4-((3R,10S,12S,13R)-3,12-dihydroxy-10,13-dimethylhexadecahydro-1H-cyclopenta[a]phenanthren-17-yl)pentanoate] | 67.6 | – | 85.7 | – | 89.2 | – | – | 123 to 125 | – | –
Cc1ccc(C(=O)Cn2cc(CNC(=O)CC[C@@H](C)C3CCC4C5CCC6C[C@H](O)CC[C@]6(C)C5C[C@H](O)[C@@]43C)nn2)cc1 (stereo partly drawn) [6db, (4R)-4-((3R,10S,12S,13R)-3,12-Dihydroxy-10,13-dimethylhexadecahydro-1H-cyclopenta[a]phenanthren-17-yl)-N-((1-(2-oxo-2-(p-tolyl)ethyl)-1H-1,2,3-triazol-4-yl)methyl)pentanamide] | 78.7 | – | 53.7 | – | 89.4 | – | – | 112 to 115 | – | –
C[C@H](CCC(=O)OCc1cn(CC(=O)c2ccccc2)nn1)C1CCC2C3CCC4C[C@H](O)CC[C@]4(C)C3C[C@H](O)[C@@]21C (stereo partly drawn) [6ba, (1-(2-Oxo-2-phenylethyl)-1H-1,2,3-triazol-4-yl)methyl (4R)-4-((3R,10S,12S,13R)-3,12-dihydroxy-10,13-dimethylhexadecahydro-1H-cyclopenta[a]phenanthren-17-yl)pentanoate] | 91.9 | – | 97.8 | – | 88.9 | – | – | 143 to 144 | – | –
COc1ccc(C(=O)Cn2cc(CNC(=O)CC[C@@H](C)C3CCC4C5CCC6C[C@H](O)CC[C@]6(C)C5C[C@H](O)[C@@]43C)nn2)cc1 (stereo partly drawn) [6dc, (4R)-4-((3R,10S,12S,13R)-3,12-Dihydroxy-10,13-dimethylhexadecahydro-1H-cyclopenta[a]phenanthren-17-yl)-N-((1-(2-(4-methoxyphenyl)-2-oxoethyl)-1H-1,2,3-triazol-4-yl)methyl)pentanamide] | 68.5 | – | 64.9 | – | 86.5 | – | – | 114 to 115 | – | –
C[C@H](CCC(=O)NCc1cn(CC(=O)c2ccc(Cl)cc2)nn1)C1CCC2C3C(C[C@H](O)[C@@]21C)[C@@]1(C)CC[C@@H](O)CC1C[C@H]3O (stereo partly drawn) [6ce, (4R)-N-((1-(2-(4-Chlorophenyl)-2-oxoethyl)-1H-1,2,3-triazol-4-yl)methyl)-4-((3R,7R,10S,12S,13R)-3,7,12-trihydroxy-10,13-dimethylhexadecahydro-1H-cyclopenta[a]phenanthren-17-yl)pentanamide] | 69.2 | – | 50.6 | – | 92.7 | – | – | 154 to 155 | – | –
CC(C)CCCC(C)C1CCC2C3CCC4CC(=O)C(n5cc(-c6ccccn6)nn5)CC4(C)C3CCC12C (stereo not drawn) [III] | – | – | – | – | – | – | – | – | 43.5 | –
C[C@H](CCC(=O)NCc1cn(CC(=O)c2ccc(F)cc2)nn1)C1CCC2C3CCC4C[C@H](O)CC[C@]4(C)C3C[C@H](O)[C@@]21C (stereo partly drawn) [6dd, (4R)-4-((3R,10S,12S,13R)-3,12-Dihydroxy-10,13-dimethylhexadecahydro-1H-cyclopenta[a]phenanthren-17-yl)-N-((1-(2-(4-fluorophenyl)-2-oxoethyl)-1H-1,2,3-triazol-4-yl)methyl)pentanamide] | 73.8 | – | 89.9 | – | 81.6 | – | – | 126 to 127 | – | –
Cc1cccc(-c2cn(CC3CC4C5CC=C6CC(O)CCC6(C)C5CCC4(C)C3O)nn2)c1 (stereo not drawn) [II] | – | – | – | – | – | – | – | – | 96.9 | –
COc1ccc(C(=O)Cn2cc(COC(=O)CC[C@@H](C)C3CCC4C5C(C[C@H](O)[C@@]43C)[C@@]3(C)CC[C@@H](O)CC3C[C@H]5O)nn2)cc1 (stereo partly drawn) [6ac, (1-(2-(4-Methoxyphenyl)-2-oxoethyl)-1H-1,2,3-triazol-4-yl)methyl (4R)-4-((3R,7R,10S,12S,13R)-3,7,12-trihydroxy-10,13-dimethylhexadecahydro-1H-cyclopenta[a]phenanthren-17-yl)pentanoate] | 55.6 | – | 80 | – | 87.9 | – | – | 176 to 177 | – | –
C[C@H](CCC(=O)OCc1cn(CC(=O)c2ccc(Cl)cc2)nn1)C1CCC2C3CCC4C[C@H](O)CC[C@]4(C)C3C[C@H](O)[C@@]21C (stereo partly drawn) [6be, (1-(2-(4-Chlorophenyl)-2-oxoethyl)-1H-1,2,3-triazol-4-yl)methyl (4R)-4-((3R,10S,12S,13R)-3,12-dihydroxy-10,13-dimethylhexadecahydro-1H-cyclopenta[a]phenanthren-17-yl)pentanoate] | 68.5 | – | 76 | – | 88.4 | – | – | 92 to 93 | – | –
C[C@H](CCC(=O)OCc1cn(CC(=O)c2ccc(Cl)cc2)nn1)C1CCC2C3C(C[C@H](O)[C@@]21C)[C@@]1(C)CC[C@@H](O)CC1C[C@H]3O (stereo partly drawn) [6ae, (1-(2-(4-Chlorophenyl)-2-oxoethyl)-1H-1,2,3-triazol-4-yl)methyl (4R)-4-((3R,7R,10S,12S,13R)-3,7,12-trihydroxy-10,13-dimethylhexadecahydro-1H-cyclopenta[a]phenanthren-17-yl)pentanoate] | 79.6 | – | 58.9 | – | 96.2 | – | – | 153 to 154 | – | –
COc1ccc2c(c1)CCC1C2CCC2(C)C(O)C(n3cc(-c4ccc(C(C)(C)C)cc4)nn3)CC12 (stereo not drawn) [IV] | – | – | – | – | – | – | – | – | – | 5.08
